Reference: US20250049801A1, “PHARMACEUTICAL COMBINATIONS FOR USE IN THE TREATMENT OF NEOPLASTIC DISEASES” (priority 2021, published 2025)
Marks after values point to notes of the source that are not given here.

Tests used:
[1] = mouse, in vivo
Procedure: Dosing was delayed by 1 day in any mice showing transient body weight loss of ≥ 10% at any time point.
(§1) Body weights and tumor volumes were determined at least twice per week, the latter by measuring two dimensions with calipers and applying the formula “V=(L×W2)/2”, where V is the tumor volume, and L and W are the tumor length and width respectively. […] Mice were also culled if the BWL was determined to be >15% for 3 consecutive days. Any mice with >10% BWL, automatically were dosed on one of the following days, as soon as the BWL returned to <10%. All animal protocols were reviewed and approved by the relevant local committees in China, where the studies were performed.

TNBC BR1282 PDX model = test: Second PDX study, efficacy; type: in vivo, BALB/c nude mice; details: for Efficacy: ΔT/C Day 13: mean change in tumor volume on day 13; for Efficacy: ΔT/C Day 0 up to day 51: mean rate of growth (k), day 0 to culling day or day 51; for Cures By day 148: no tumors detectable by pathological confirmation at end of observation period, 8 mice per group
Procedure: (§2) The compound of formula (I) was supplied as a powder by Basilea Pharmaceutica International Ltd. and was prepared freshly as a solution in Ethanol: PEG400:Citric acid 20 mM, at a ratio of 1:1:8, for immediate administration.
(§3) The statistical significance of efficacy were determined in two different ways using a) the endpoint on day 16 or day 13 depending on the study when it was necessary to cull the vehicle group because of tumor volume exceeding 1500 mm3, and b) at the endpoint of day 42 or day 51 depending on the study (one week after the final treatment) when exponential curve fits were applied to estimate the rates of tumor growth in the different groups. Finally, the number of complete cures was compared across the groups following confirmation by histopathology within the first study. The degree of an effect was quantified by the delta (Δ) treated/control ratio (ΔT/C) and the statistical significance of the effect was determined by a one-way analysis of variance (1W-ANOVA) with Holms-Sidak applied post-hoc for multiple determinations, where a p-value of <0.05 was considered statistically significant. In addition, an assessment of synergy was made based upon the Clarkes Combination Index (CCI), where the CCI=ΔT/CAB−(ΔT/CA*ΔT/CB) in which A and B are two different compounds, where CCI<−0.1 indicates synergy (or a positive interaction), +0.1 (antagonism, or a negative interaction) and between −0.1 and +0.1 indicates additivity (no interaction); see O'Reilly et al. Anti Cancer Drugs 2011; 22:58-78.

[2] = system: patient-derived xenograft (PDX) triple negative breast cancer (TNBC) tumor, BR1282; test: First PDX study, efficacy; type: in vivo, BALB/c nude mice; details: for Efficacy: ΔT/C Day 16: mean change in tumor volume on day 16; for Efficacy: ΔT/C Day −0 up to Day 42: mean rate of growth (k), exponential curve fits, day 0 to culling day or day 42; for Cures Day 97: no tumors detectable by H&E staining of skin on day 97, N=8 mice/group
Procedure: as §2, §3

[3] = for Tolerability (Day 16) ΔBW (%) / Tolerability (Day 16) ΔT/C: mouse, in vivo
Procedure: In a first PDX study female BALB/c nude mice (CrownBio) of at least 20 g body weight were subcutaneously (s.c.) inoculated in the right flank with tumor fragments (3*3*3 mm) from stock mice bearing the patient-derived xenograft (PDX) triple negative breast cancer (TNBC) tumor, BR1282. Randomization into 5 different treatment groups (8 mice per group) was made when the mean tumor size was 150-200 mm3. […] The fifth group received both vehicles using the time interval of 4 h and all groups were dosed twice via the tail vein. Dosing was delayed by 1 day in any mice showing transient body weight loss of ≥ 10% at any time point.
as §1

tumor-derived TTK = biological target: T1, tumor-derived TTK (Homo sapiens, UniProt P33981); test: Tumor TTK target occupancy in MDA-MB-231 xenograft-bearing mice; type: in vivo
T1 construct: from tissue; host or cells: MDA-MB-231 xenograft tumours from mice
T1 sequence (P33981 1-857): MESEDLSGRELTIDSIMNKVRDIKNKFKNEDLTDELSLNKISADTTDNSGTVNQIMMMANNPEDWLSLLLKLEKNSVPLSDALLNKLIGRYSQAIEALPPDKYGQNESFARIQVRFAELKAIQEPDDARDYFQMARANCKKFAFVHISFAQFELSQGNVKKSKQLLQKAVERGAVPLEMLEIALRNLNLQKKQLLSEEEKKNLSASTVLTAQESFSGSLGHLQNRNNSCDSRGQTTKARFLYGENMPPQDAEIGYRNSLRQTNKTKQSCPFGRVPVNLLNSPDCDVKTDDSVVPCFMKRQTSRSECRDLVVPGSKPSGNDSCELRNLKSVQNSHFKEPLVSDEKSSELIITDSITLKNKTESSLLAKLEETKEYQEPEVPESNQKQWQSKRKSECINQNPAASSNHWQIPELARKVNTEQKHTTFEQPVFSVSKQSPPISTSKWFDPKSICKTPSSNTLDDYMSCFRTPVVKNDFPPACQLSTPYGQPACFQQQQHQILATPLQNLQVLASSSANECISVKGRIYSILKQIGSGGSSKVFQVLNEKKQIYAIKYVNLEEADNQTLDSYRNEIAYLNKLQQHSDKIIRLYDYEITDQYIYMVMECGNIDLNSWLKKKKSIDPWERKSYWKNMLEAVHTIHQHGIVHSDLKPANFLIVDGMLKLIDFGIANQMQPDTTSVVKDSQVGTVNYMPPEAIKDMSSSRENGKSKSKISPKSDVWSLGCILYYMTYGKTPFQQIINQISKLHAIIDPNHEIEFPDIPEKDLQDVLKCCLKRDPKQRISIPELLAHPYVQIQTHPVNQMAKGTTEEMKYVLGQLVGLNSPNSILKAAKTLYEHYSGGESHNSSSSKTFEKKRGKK
Procedure: Prolonged TTK target occupancy was also measured in tumors derived from MDAMB-231 xenograft-bearing mice treated with intermittent i.v. dosing regimen of compound of formula (I). […]

biotinylated PLK1 = biological target: T2, biotinylated PLK1 (Homo sapiens, UniProt P53350); test: Target residence time assay (Biacore T200 surface plasmon resonance), PLK1; type: binding; details: SPR, 22° C.
T2 construct: biotin (biotinylated)
T2 sequence (P53350 whole entry): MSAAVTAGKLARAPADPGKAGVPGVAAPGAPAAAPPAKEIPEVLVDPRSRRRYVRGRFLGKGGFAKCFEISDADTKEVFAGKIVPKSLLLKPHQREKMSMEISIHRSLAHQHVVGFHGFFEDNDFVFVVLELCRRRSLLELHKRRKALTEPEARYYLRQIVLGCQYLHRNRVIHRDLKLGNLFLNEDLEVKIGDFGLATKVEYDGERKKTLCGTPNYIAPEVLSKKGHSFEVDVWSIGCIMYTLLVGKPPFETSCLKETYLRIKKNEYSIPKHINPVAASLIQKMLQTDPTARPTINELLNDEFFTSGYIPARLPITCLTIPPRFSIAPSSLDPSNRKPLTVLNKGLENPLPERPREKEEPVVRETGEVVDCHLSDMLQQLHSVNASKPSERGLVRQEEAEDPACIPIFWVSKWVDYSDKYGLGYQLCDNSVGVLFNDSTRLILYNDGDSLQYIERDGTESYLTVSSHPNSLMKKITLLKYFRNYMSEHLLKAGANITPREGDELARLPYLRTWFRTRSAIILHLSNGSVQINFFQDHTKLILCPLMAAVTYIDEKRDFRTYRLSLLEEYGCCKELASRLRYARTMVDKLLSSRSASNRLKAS
Procedure: (§4) The affinity, i.e. the equilibrium dissociation constant (KD) (referred to as residence times), of the compound of formula (I) against TTK and PLK1 were determined using a Biacore T200™ surface plasmon resonance instrument using recombinant expressed TTK kinase domain (amino acids 519-808) or biotinylated PLK1. The immobilization of TTK was performed as described in Maia et al. Annals of Oncology, 2015; 26:2180-2192. The immobilization of biotinylated PLK1 was performed as described in Willemsen-Seegers et al. Journal of Molecular Biology, 2017; 429:574-586. The subsequent single cycle kinetic assays were performed at 22° C. using a compound concentration gradient of 1, 3.6, 10, 31.6 and 100 nM for TTK and 10, 31.6, 100, 316 and 1000 nM for PLK1, a contact time of 100 s and a flow rate of […]. The dissociation period was 1200-1800 s and a correction for an unstable surface using a blank run with buffer was performed.

TTK [4] = biological target: T3, TTK (Homo sapiens, UniProt P33981); test: TTK kinase assay as described in WO 2015/155042; type: biochemical; details: when measured as described in WO 2015/155042
T3 construct: TTK and PLK1 protein kinases were expressed as recombinant full-length GST-fusion proteins; GST
T3 sequence (P33981 1-857): T1 sequence (P33981 1-857)

[5] = system: patient-derived tumor xenografts, including TNBC and hepatocellular cancer (HCC) models; test: Patient-derived tumor xenografts in mice (data not shown); type: in vivo
From the text: (§5) In cellular systems, the compound of formula (I) has high potency against sensitive cells.

PLK1 [6] = biological target: T4, PLK1 (Homo sapiens, UniProt P53350); test: Radiometric protein kinase assay (33PanQinase Activity Assay), PLK1; type: biochemical; details: radiometric 33PanQinase assay; ATP 1 mM
T4 sequence (P53350 whole entry, the tested form may be a part): as the sequence (P53350 whole entry) above
Procedure: (§6) A radiometric protein kinase assay (33PanQinase® Activity Assay) was used for measuring the kinase activity of TTK and PLK1. TTK and PLK1 protein kinases were expressed as recombinant full-length GST-fusion proteins. The reaction cocktail contained […] of enzyme/substrate mixture. The assay for the protein kinases contained 70 mM HEPES-NaOH pH 7.5, 3 mM MgCl2, 3 mM MnCl2, 3 mM Na-orthovanadate, 1.2 mM DTT, […] PEG20000, ATP (0.3 mM for TTK and 1 mM for PLK1), [γ-33P]-ATP (approx. 8×10^5 cpm per well), protein kinase (15.8 nM for TTK and 5 nM for PLK1), and substrate (1 mg/50 mL for TTK and 2 mg/50 mL for PLK1). All assays were performed with a Beckman-Coulter/SAGIAN™ Core System. The fitting model for the IC50 determinations was “Sigmoidal response (variable slope)” with parameters “top” fixed at 100% and “bottom” at 0%. The fitting method used was a least squares fit.

[7] = system: triple negative breast cancer cell lines; test: 5-day anti-proliferative screen of 18 triple negative breast cancer cell lines; type: cell-based; details: 120 h, 18 different triple negative breast cancer cell lines, read-out: median GI50
From the text: as §5

TTK [8] = biological target: T3, TTK; test: Radiometric protein kinase assay (33PanQinase Activity Assay), TTK; type: biochemical; details: radiometric 33PanQinase assay; ATP 0.3 mM
Procedure: as §6

[9] = biological target: T5, TTK kinase domain (amino acids 519-808) (Homo sapiens, UniProt P33981); test: Target residence time assay (Biacore T200 surface plasmon resonance), TTK; type: binding; details: SPR, 22° C.
T5 construct: recombinant expressed TTK kinase domain (amino acids 519-808)
T5 sequence (P33981 519-808): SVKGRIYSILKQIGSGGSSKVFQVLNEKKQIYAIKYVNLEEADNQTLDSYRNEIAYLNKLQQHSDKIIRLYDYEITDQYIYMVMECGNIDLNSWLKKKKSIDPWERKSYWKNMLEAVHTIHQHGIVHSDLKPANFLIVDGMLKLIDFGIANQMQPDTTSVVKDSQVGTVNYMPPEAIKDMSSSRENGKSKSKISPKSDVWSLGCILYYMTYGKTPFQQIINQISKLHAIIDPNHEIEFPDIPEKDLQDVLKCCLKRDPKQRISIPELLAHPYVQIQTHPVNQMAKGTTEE
Procedure: as §4

PLK1 [10] = biological target: T4, PLK1; test: PLK1 kinase assay as described in WO 2015/155042; type: biochemical; details: when measured as described in WO 2015/155042
other kinase = test: Kinase specificity, other kinases versus TTK; type: biochemical
[11] = Single-dose pharmacokinetic drug-drug interaction experiment; type: in vivo; details: 8 mg/kg i.v., 1 h after paclitaxel (15 mg/kg, i.v.); non tumor-bearing mice

**Q.** Which results are given for `CC(=O)O[C@H]1C(=O)[C@@]2(C)[C@H]([C@H](OC(=O)c3ccccc3)[C@]3(O)C[C@H](OC(=O)[C@H](O)[C@@H](NC(=O)c4ccccc4)c4ccccc4)C(C)=C1C3(C)C)[C@]1(OC(C)=O)CO[C@@H]1C[C@@H]2O` [Paclitaxel, reference compound]?
**A.** Tolerability (Day 13) ΔBW (%) [1]: 4.9 ± 0.3%; Tolerability (Day 13) ΔT/C [1]: 1.02; Efficacy: ΔT/C Day 13 (TNBC BR1282 PDX model): 0.48; Efficacy: ΔT/C Day 0 up to day 51 (TNBC BR1282 PDX model): 0.63***; Cures By day 148 (TNBC BR1282 PDX model): 0/8; Efficacy: ΔT/C Day 16 [2]: 0.24; Efficacy: ΔT/C Day −0 up to Day 42 [2]: 0.41***; Cures Day 97 [2]: 0/8; Tolerability (Day 16) ΔBW (%) [3]: −1.0 ± 1.2%; Tolerability (Day 16) ΔT/C [3]: 1.00

**Q.** Which results are given for `COc1cc(N2CCNCC2)ccc1Nc1ncc2c(n1)-n1ccc(C(=O)Nc3c(C)cccc3C)c1CC2` [Compound of formula (I)]?
**A.** time TTK completely occupied after last dose (tumor-derived TTK; i.v. twice-weekly, MTD dose): at least 72 h; time tumor-derived TTK fully drug-occupied after last administration (tumor-derived TTK; i.v. weekly MTD dosing): up to 6 days; target-residency on PLK1 (biotinylated PLK1): a few minutes; IC50 (TTK [4]): 0.4 nM; activity against patient-derived tumor xenografts [5]: significant activity; IC50 (PLK1 [6]): 72 nM; Tolerability (Day 13) ΔBW (%) [1]: −1.9 ± 1.4%; Tolerability (Day 13) ΔT/C [1]: 0.93; GI50 [7]: 35 nM; animals indicating regression (TNBC BR1282 PDX model; day 51): 3/8; Efficacy: ΔT/C Day 13 (TNBC BR1282 PDX model): 0.32; Efficacy: ΔT/C Day 0 up to day 51 (TNBC BR1282 PDX model): −0.02***; Cures By day 148 (TNBC BR1282 PDX model): 0/8; Efficacy: ΔT/C Day 16 [2]: 0.45; Efficacy: ΔT/C Day −0 up to Day 42 [2]: 0.28***; Cures Day 97 [2]: 0/8; IC50 (TTK [8]): 7 nM; target-residency on TTK [9]: > 12 h; IC50 (PLK1 [10]): 46 nM; mortality ([3]; day 21, considered non-drug-related): one mouse died; Tolerability (Day 16) ΔBW (%) [3]: −0.3 ± 1.4%; Tolerability (Day 16) ΔT/C [3]: 1.01; other kinase IC50s higher than those for TTK (other kinase): at least 10 fold; change in plasma AUC of the compound of formula (I) [11]: slight nonsignificant increase
